The source of these data is the NIST ThermoML archive (doi:10.1016/j.tca.2019.02.007).

Numbers after ± are expanded uncertainties.

Data set [1] is described as follows: Molar enthalpy of transition or fusion. As to conditions: DSC.
The conditions of data set [2]: for Normal melting temperature: DTA.

On to `CC(=O)Oc1ccccc1C(=O)O` [2-acetoxybenzoic acid], for which the “Molar enthalpy of transition or fusion” value in data set [1] (Crystal) was determined as 8.08 ± 0.574 kcal/mol. Besides, the Normal melting temperature in data set [2] (Crystal) stood at 139.2 ± 1.5 °C.

With `O=C(O)c1ccccc1` [benzoic acid], the “Molar enthalpy of transition or fusion” value in data set [1] (Crystal) is 4.33 ± 0.131 kcal/mol. Moreover, the Normal melting temperature in data set [2] (Crystal) was found to be 122.5 ± 0.5 °C.

`Cn1c(=O)c2c(ncn2C)n(C)c1=O` [caffeine]: the “Molar enthalpy of transition or fusion” value is 5 ± 0.526 kcal/mol in data set [1] (Crystal 1) and 0.954 ± 0.0741 kcal/mol in data set [1] (Crystal 2). The Normal melting temperature in data set [2] (Crystal 1) was 235.2 ± 1.3 °C. Besides, the Triple point temperature in data set [2] (Crystal 2, DSC) turned out to be 420.3 ± 1.1 K.
